Patent EP0196849A2, “Aminohydroxyalkylbenzene anti-obesity and/or anti-hyperglycaemic agents” (BEECHAM GROUP PLC, priority 1985, dated 1986)

Tested on: Female CFLP mice
Assay: Anti-hyperglycaemic activity: subcutaneous glucose load in fasted mice, area under blood glucose curve
Type: in vivo
Conditions: 24 h fasted female CFLP mice, glucose 1 g/kg s.c. 30 min after dosing, 2-hour AUC vs water controls
Protocol: Female CFLP mice, weighing approximately 25g, were fasted for 24 hours prior to the study. The compounds under study were administered orally as an aqueous solution to each of 6 mice. Thirty minutes later a blood sample (20ul) was obtained from the tail for the analysis of blood glucose. Immediately after taking this blood sample, glucose (lg/kg body weight) was administered subcutaneously to each mouse. Six mice were given water as a control. Blood samples were then obtained from each mouse at 30 minute intervals for 120 minutes.
Compounds that produced a significant (p<0.05) reduction of blood glucose, compared with control mice given water, at any time interval were considered active. The area under the blood glucose curve over the 2-hour period after the administration of the glucose was calculated for each compound and compared with the value for control animals.

[1] = Dose 5 µmol/kg orally as aqueous solution

## C[C@H](Cc1ccc(C[C@@H](C)NC[C@H](O)c2cccc(Cl)c2)cc1)NC[C@H](O)c1cccc(Cl)c1 [Example 2, (R,R,R,R)-α,α'-[1,4-Phenylenebis[(1-methyl-2,1-ethanediyl)imino]methylene]bis[3-chlorobenzenemethanol]]
Dose 25 µmol/kg orally as aqueous solution
  % Reduction in area under blood glucose curve: 49%

## O[C@@H](CNCCOc1ccc(OCCNC[C@H](O)c2ccccc2)cc1)c1ccccc1 [Example 3, (R,R)-a-a'-[1,4-Phenylenedioxybis [(2,1-ethanediyl)-imino]methylene] bis [benzenemethanol]]
[1]
  % Reduction in area under blood glucose curve: 10%

## O[C@@H](CNCCOc1ccc(OCCNC[C@H](O)c2cccc(Cl)c2)cc1)c1cccc(Cl)c1 [Example 5, (R,R)-α,α^1-[1,4-Phenylenedioxybis[(2,1-ethanediyl)-imino]methylene]bis[3-chlorobenzenemethanol]]
Dose 2.5 µmol/kg orally as aqueous solution
  % Reduction in area under blood glucose curve: 30%

## O[C@@H](CNCCc1ccc(CCNC[C@H](O)c2cccc(Cl)c2)cc1)c1cccc(Cl)c1 [Example 6, (R,R)-a,a'-[1,4-Phenylenebis[(2,1-ethanediyl]imino]-methylene]bis[3-chlorobenzenemethanol]]
[1]
  % Reduction in area under blood glucose curve: 48%

## O[C@@H](CNCCc1ccc(CCNC[C@H](O)c2ccccc2)cc1)c1ccccc1 [Example 4, (R,R)-a,a'-[1,4-Phenylenebis [(2,1-ethanediyl)imino]-methylene]bis[benzenemethanol]]
Dose 12.5 µmol/kg orally as aqueous solution
  % Reduction in area under blood glucose curve: 4.2%
